Results as given in US6750058B1, “Transfecting peptide vector, composition containing same and applications” (Commissariat a l'Energie Atomique, priority 1997, dated 2004).

How the values were obtained:
Human erythrocytes = assay: Haemolytic test; assay type: cell-based; settings: 6 μg of peptide I, 10^6 erythrocytes, 37° C.
Procedure: Human erythrocytes are washed 3 times with PBS buffer. 10^6 erythrocytes are incubated with 6 μg of peptide I for various periods of time at 37° C. After centrifugation at 10,000 g for 5 min, the optical density of the supernatant is measured at 540 nm.

HeLa cells = assay: Transfection of HeLa cells with luciferase plasmid pGL3, light emission in cell lysates; assay type: cell-based; settings: for RLU (luciferase light emission): DNA 1.5 μg; for transfection (in words): summary of Table II
Procedure: The HeLa cells are cultured at 37° C. in an EMEM medium supplemented with 10% foetal calf serum under an atmosphere containing 5% CO2.
1.5 to 12 μg of peptide I in 50 μl of dilution buffer (20 mM Tris, pH 7.4, 150 mM NaCl) are incubated with 1.5 μg of plasmid pGL3 in 250 μl of EMEM medium for 15 to 30 min at room temperature.
The mixture of DOTAP or of DOSPER with 1.5 μg of plasmid pGL3 is prepared according to the manufacturer's instructions (Boehringer). For the studies of the effect of the peptide on transfection in the presence of liposomes, portions of peptides are mixed with DOTAP or DOSPER in the dilution buffer defined above for 15 to 30 min at room temperature, and then 1.5 μg of plasmid pGL3 are added and incubated for 15 min at room temperature.
The transfections are carried out in plates comprising 24 wells (Beckton Dickinson) with 1.5×10^5 cells/well (confluence of about 50%) for 1 h at 37° C. After 24 h, the light emission is measured in the cell lysates with the Promega Luciferase Assay System test.

With `CC(C)C[C@H](NC(=O)[C@H](CCCNC(=N)N)NC(=O)[C@H](C)NC(=O)[C@H](CCCNC(=N)N)NC(=O)[C@H](CCCCN)NC(=O)[C@H](C)N)C(=O)N[C@@H](CO)C(=O)N[C@H](C(=O)N[C@@H](CO)C(=O)N[C@@H](Cc1ccccc1)C(=O)N[C@@H](CC(N)=O)C(=O)N1CCC[C@H]1C(=O)N[C@H](C(=O)N[C@@H](Cc1ccc(O)cc1)C(=O)N1CCC[C@H]1C(=O)N[C@@H](Cc1ccc(O)cc1)C(=O)N[C@@H](CCC(=O)O)C(=O)N[C@@H](CC(=O)O)C(=O)N[C@@H](CCC(=O)O)C(=O)N[C@@H](CO)C(=O)N[C@@H](CCCCN)C(=O)N[C@@H](CCCCN)C(=O)N[C@@H](CCCCN)C(=O)N[C@@H](CCCCN)C(=O)N[C@@H](CCCCN)C(=O)N[C@@H](CCCCN)C(=O)N[C@@H](CCCCN)C(=O)N[C@@H](CCCCN)C(=O)N[C@@H](CCCCN)C(=O)N[C@@H](CCCCN)C(=O)N[C@@H](CCCCN)C(=O)N[C@@H](CCCCN)C(=O)N[C@@H](CCCCN)C(=O)N[C@@H](CCCCN)C(=O)N[C@@H](CCCCN)C(=O)N[C@@H](CCCCN)C(=O)N[C@@H](CCCCN)C(=O)N[C@@H](CCCCN)C(=O)N[C@@H](CCCCN)C(=O)N[C@@H](CCCCN)C(=O)O)C(C)C)[C@@H](C)O` [Peptide I, AKRARLSTSFNPVYPYEDES - K20] the haemolytic test result (Human erythrocytes) was “negative results”.
In the case of “A K R A R L S T S E D E S-K10 (AKRARLSTSEDESKKKKKKKKKK) [Peptide IE]”, the “RLU (luciferase light emission)” value (HeLa cells; Table II, peptide 3 μg) was 1 RLU/10 s/10^5 cells × 10^3, the “RLU (luciferase light emission)” value (HeLa cells; Table II, peptide 6 μg) was 10 RLU/10 s/10^5 cells × 10^3 and the “RLU (luciferase light emission)” value (HeLa cells; Table II, peptide 9 μg) was 110 RLU/10 s/10^5 cells × 10^3. For the same compound, the “RLU (luciferase light emission)” value (HeLa cells; Table II, peptide 12 μg) was 330 RLU/10 s/10^5 cells × 10^3 and the “times less efficient than peptide IC” value (HeLa cells; transfection efficiency, Table II) was “approximately 30 times”.
With “AKRARLSTSFNPVYPYEDES - K10 [Peptide IC]” the “RLU (luciferase light emission)” value (HeLa cells; Table II, peptide 3.6 μg) was 1 RLU/10 s/10^5 cells × 10^3, the “RLU (luciferase light emission)” value (HeLa cells; Table II, peptide 9 μg) was 2870 RLU/10 s/10^5 cells × 10^3 and the “RLU (luciferase light emission)” value (HeLa cells; Table II, peptide 12 μg) was 1330 RLU/10 s/10^5 cells × 10^3. The “effect of reduced number of lysines in the polylysine polymer on transfection efficiency” value (HeLa cells; can be compensated for by increasing the quantity of peptide) was “modest negative effect”.
For “AKRARLSTSFNPVYPYEDES [Peptide IA]”, the “RLU (luciferase light emission)” value (HeLa cells; Table II, peptide 3-12 μg) was 1 RLU/10 s/10^5 cells × 10^3 and the “transfection (in words)” value (HeLa cells) was “no transfection”.
In the case of “L S T S F N P V Y P Y E D E S-K20 [Peptide ID]”, the “attaching and condensing the DNA and entering into the cell” value (HeLa cells) was “still capable of attaching and condensing the DNA and of entering into the cell”, the “transport of the DNA into the nucleus” value (HeLa cells) was “incapable of transporting this DNA into the nucleus” and the “RLU (luciferase light emission)” value (HeLa cells; Table II, peptide 3-12 μg) was 1 RLU/10 s/10^5 cells × 10^3. For the same compound, the “transfection (in words)” value (HeLa cells) was “no transfection”.
